# Laboratory results as given in US9056087B2, “Methods of healing or preventing inflammation, damage and other changes that occur prior to, during or immediately after a myocardial event with thymosin beta 4, analogues, isoforms and other derivatives” (REGENERX BIOPHARMACEUTICALS, INC., priority 2001, dated 2015).
# Tested on: cardiac endothelial cells
# Experiment: collagen gel assay: transformation of cardiac endothelial cells to mesenchymal cells
# Type: cell-based
# Conditions: at physiological concentrations (Tβ4)
# Procedure: Synthetic Tβ4 and an antibody to Tβ4 was provided by RegeneRx Biopharmaceuticals, Inc. (3 Bethesda Metro Center, Suite 700, Bethesda, Md. 20814) and were tested in a collagen gel assay to determine their effects on the Transformation of cardiac endothelial cells to mesenchymal cells. It is Well established that development of heart valves and other cardiac tissue are formed by epithelial-mesenchymal transformation and that defects in this process can cause serious cardiovascular malformation and injury during development and throughout life. […] Transformation of atrioventricular endocardium into invasive mesenchyme is critical in the formation and maintenance of normal cardiac tissue and in the formation of heart valves.
substance,measurement,value
"Thymosin β4 (SDKPDMAEIEKFDKSKLKKTETQEKNPLPSKETIEQEKQAGES; not fully specified; Thymosin beta-4; UniProt P62328 2-44, looked up) [Tβ4, synthetic Tβ4 provided by RegeneRx]",effect on the transformation of endocardial cells to mesenchymal cells in the collagen gel assay,markedly enhances the transformation
